Earlier results in PMC6858927 (Investigational new drugs, 2019).

Test system: AML cells with TKD mutants
Settings: cited from earlier work

| SMILES | sensitivity of AML cells with TKD mutants |
| --- | --- |
| CC(C)(C)c1cc(NC(=O)Nc2ccc(-c3cn4c(n3)sc3cc(OCCN5CCOCC5)ccc34)cc2)no1 [quizartinib] | highly resistant |
| CNC(=O)c1cc(Oc2ccc(NC(=O)Nc3ccc(Cl)c(C(F)(F)F)c3)cc2)ccn1 [sorafenib] | highly resistant |
